# Patent publication US20230340127A1, “METHODS AND COMPOSITIONS FOR CANCER TREATMENT BY INHIBITION OF FBXO44” (Sanford Burnham Prebys Medical Discovery Institute, priority 2022, published 2023)
# System: MDA-MB-231 or 4T1 cells
# Test: qRT-PCR of endogenous retroelements, IFN-α/β, ISGs and PD-L1 in F5446-treated cells
# Format: cell-based
# Conditions: cancer cells (MDA-MB-231, 4T1), qRT-PCR (FIGS. 10F-10G)
# Procedure: Quantitative (q)RT-PCR: total RNA was isolated using the RNeasy Plus Mini Kit (Qiagen no. 74134). cDNA was synthesized using qScript cDNA SuperMix (Quantabio no. 95048) following the manufacturer's instructions. qPCR reactions were performed using SYBR Select Master Mix (Thermo Fisher Scientific no. 4472908) and a Stratagene Mx3000P instrument (Agilent Technologies). Thermal cycling conditions included an initial denaturation step of 95° C. for 10 min and 40 cycles at 95° C. for 15 sec and 60° C. for 60 sec. Analyses were carried out in triplicate for each data point. The qPCR primers used for gene expression analysis of human REs and genes included MajSAT-[…] (SEQ ID NO: 1) and […] (SEQ ID NO: 2), mcBox-[…] (SEQ ID NO: 3) and […] (SEQ ID NO: 4), SATIII-[…] (SEQ ID NO: 5) and […] (SEQ ID NO: 6), Alu-[…] (SEQ ID NO: 7) and […] (SEQ ID NO: 8), L1 ORF1-TGGCCCCCACTCTCTTCT (SEQ ID NO: 18) and […] (SEQ ID NO: 19), L1 ORF2-[…] (SEQ ID NO: 20) and […] (SEQ ID NO: 21), L1 5′-UTR-AAGCAAGCCTGGGCAATG (SEQ ID NO: 22) and […] (SEQ ID NO: 23), HERV-E-[…] (SEQ ID NO: 24) and GCAGCCTAGGTCTCTGG (SEQ ID NO: 25), HERV-F-CCTCCAGTCACAACAACTC (SEQ ID NO: 26) and TATTGAAGAAGGCGGCTGG (SEQ ID NO: 27), HERV-K-[…] (SEQ ID NO: 28) and […] (SEQ ID NO: 29), ERVL-[…] (SEQ ID NO: 30) and […] (SEQ ID NO: 31), GAPDH-[…] (SEQ ID NO: 32) and […] (SEQ ID NO: 33), FBXO44-[…] (SEQ ID NO: 34) and […] (SEQ ID NO: 35), SUV39H1-[…] […]
smiles,measurement,value
COC(=O)c1cc2c(n1S(=O)(=O)c1ccc(Cl)cc1)C(=O)C(=O)c1[nH]cc(C(=O)OCc3ccccc3)c1-2 [F5446],expression of various REs and IFN signaling,activated
